Results published in ChEMBL document CHEMBL1208759, “A newly synthesized, potent tyrosinase inhibitor: 5-(6-hydroxy-2-naphthyl)-1,2,3-benzenetriol” (Bioorg Med Chem Lett, 2010).

Legend:
[1] = Cytotoxicity against mouse B16 cells assessed as cell viability at 25 uM after 24 hrs by MTT assay; format: cell-based; conditions: read-out: Activity
[2] = Cytotoxicity against mouse B16 cells assessed as cell viability at 50 uM after 24 hrs by MTT assay; format: cell-based; conditions: read-out: Activity
[3] = Cytotoxicity against mouse B16 cells assessed as cell viability at 100 uM after 24 hrs by MTT assay; format: cell-based; conditions: read-out: Activity
[4] = tested on: B16; assay: Antimelanogenic activity in mouse B16 cells assessed as inhibition of melanin content at 25 uM relative to alpha-MSH; format: functional
[5] = tested on: B16; assay: Antimelanogenic activity in mouse B16 cells assessed as inhibition of melanin content at 100 uM relative to alpha-MSH; format: functional
[6] = tested on: B16; assay: Antimelanogenic activity in mouse B16 cells assessed as inhibition of melanin content at 400 uM relative to alpha-MSH; format: functional
[7] = molecular target: T1, Tyrosinase (Mus musculus) (UniProt P11344); assay: Inhibition of tyrosinase activity in mouse B16 cells at 25 uM; format: cell-based
T1 sequence (whole entry): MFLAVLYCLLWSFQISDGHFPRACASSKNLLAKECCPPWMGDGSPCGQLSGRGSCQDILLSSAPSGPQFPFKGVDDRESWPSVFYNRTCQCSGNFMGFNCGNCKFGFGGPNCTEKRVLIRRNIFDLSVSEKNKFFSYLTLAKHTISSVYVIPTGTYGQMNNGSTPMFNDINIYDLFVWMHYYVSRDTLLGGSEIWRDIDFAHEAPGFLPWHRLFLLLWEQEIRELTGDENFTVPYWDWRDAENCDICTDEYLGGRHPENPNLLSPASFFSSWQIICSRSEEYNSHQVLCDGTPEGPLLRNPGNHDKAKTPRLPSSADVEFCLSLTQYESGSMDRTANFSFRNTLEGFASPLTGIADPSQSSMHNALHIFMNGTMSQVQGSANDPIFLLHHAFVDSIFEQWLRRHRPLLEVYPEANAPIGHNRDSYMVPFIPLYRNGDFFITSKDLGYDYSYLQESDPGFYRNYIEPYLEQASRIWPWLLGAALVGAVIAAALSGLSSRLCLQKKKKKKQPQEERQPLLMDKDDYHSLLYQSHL

[8] = molecular target: T1, Tyrosinase (Mus musculus); assay: Inhibition of tyrosinase activity in mouse B16 cells at 100 uM; format: cell-based
[9] = molecular target: T1, Tyrosinase (Mus musculus); assay: Inhibition of tyrosinase activity in mouse B16 cells at 400 uM; format: cell-based
[10] = molecular target: T2, Tyrosinase (Agaricus bisporus) (UniProt O42713); conditions: 0.5 uM
T2 sequence (whole entry): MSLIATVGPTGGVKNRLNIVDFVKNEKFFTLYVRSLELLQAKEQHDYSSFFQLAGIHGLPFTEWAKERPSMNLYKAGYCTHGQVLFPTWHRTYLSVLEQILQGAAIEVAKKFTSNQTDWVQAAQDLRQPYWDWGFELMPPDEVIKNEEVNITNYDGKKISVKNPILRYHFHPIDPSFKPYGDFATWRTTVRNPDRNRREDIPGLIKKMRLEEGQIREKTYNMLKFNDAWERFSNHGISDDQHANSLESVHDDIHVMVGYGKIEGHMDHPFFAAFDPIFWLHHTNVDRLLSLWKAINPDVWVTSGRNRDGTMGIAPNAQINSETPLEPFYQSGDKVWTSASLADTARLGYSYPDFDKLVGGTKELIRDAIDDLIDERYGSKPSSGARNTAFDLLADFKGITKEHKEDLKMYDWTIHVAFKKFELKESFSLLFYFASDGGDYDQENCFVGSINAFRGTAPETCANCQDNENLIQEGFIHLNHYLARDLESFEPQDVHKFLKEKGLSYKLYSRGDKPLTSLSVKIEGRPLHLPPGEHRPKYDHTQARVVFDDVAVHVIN
Description: Inhibition of mushroom tyrosinase at 0.5 uM

[11] = molecular target: T2, Tyrosinase (Agaricus bisporus); conditions: 1 uM
Description: Inhibition of mushroom tyrosinase at 1 uM

[12] = molecular target: T2, Tyrosinase (Agaricus bisporus); conditions: 2.5 uM
Description: Inhibition of mushroom tyrosinase at 2.5 uM

[13] = molecular target: T2, Tyrosinase (Agaricus bisporus); conditions: 5 uM
Description: Inhibition of mushroom tyrosinase at 5 uM

## Oc1ccc2cc(-c3cc(O)c(O)c(O)c3)ccc2c1
[1]
  viability at 24 h, 25 µM: 98.3%
[2]
  viability at 24 h, 50 µM: 98.1%
[3]
  viability at 24 h, 100 µM: 95.1%
[4]
  inhibition at 25 µM: 50.7%
[5]
  inhibition at 100 µM: 45.8%
[6]
  inhibition at 400 µM: 34.7%
[7]
  inhibition: 26.2%
[8]
  inhibition: 14.1%
[9]
  inhibition: 2.05%
[10]
  inhibition: 7.53%
[11]
  inhibition: 18.7%
[12]
  inhibition: 39.4%
[13]
  inhibition: 86.1%
